Like-named read-outs stand apart in the source and are kept apart here.
Experiments:
beagle dogs [1] = assay: Safety evaluation in multiple dosing (14 days); type: in vivo; settings: for Drug-related toxicity (appearance, mental activity, appetite, hematological, blood biochemical, ECG): continuous intragastrical administration for 14 days; for ECG examinations, hematological tests and serum biochemical tests: day 7 and 14
Procedure: Safety Evaluation of Compounds I-1 and I-2 in Multiple Dosing:
The test consisted of a physiological control group, a solvent control group, and two administration groups, with 4 animals in each group, half of which were male and the other half of which were female. Two dose groups, 100 mg/kg group and 300 mg/kg group, were set for the test compounds, to which the test compounds at doses of 100 mg/kg and 300 mg/kg were intragastrically administered respectively over 14 days. The solvent control group was administered with an equal volume of the blank solvent. Animals were daily observed for various conditions during the test. ECG examinations were performed before administration, and 7 and 14 days after administration. Hematological and blood biochemical tests were performed before administration and 7 and […] after administration.

[2] = system: platelet aggregation induced by ADP; assay: Test of inhibitory effect of compounds on platelet aggregation in rats (ex vivo, ADP-induced, after intragastric administration); design: species or system SD rats; settings: for ED50: Rattus norvegicus; for Inhibition rate (%): platelet aggregation, control = 100%; for Aggregation rate (%): 2 h after administration, ADP 20 uM
Procedure: Test of Inhibitory Effect of Compounds on Platelet Aggregation in Rats Healthy male SD rats were selected and randomly divided into solvent control group, positive drug control group and test compound group. Intragastric administration was carried out, with the administration volume being 10 ml/kg˜bw. […] The platelet count was adjusted to 5×10^8 cells/ml with PPP.

beagle dogs [3] = assay: Safety evaluation in single dosing; type: in vivo; settings: intragastric single dose of 2 g/kg; for Activities, mental condition and diet: administration and observation period
Procedure: Safety Evaluation of Compounds I-1 and I-2 in Single Dosing: The test consisted of a physiological control group, a solvent control group, and two administration groups, with 4 animals in each group, half of which were male and the other half of which were female. The animals were intragastrically administered with the test compounds at a single dose of 2 g/kg. The solvent control group was administered with an equal volume of the blank solvent. Animals were daily observed for various conditions during the test. ECG examinations were performed before administration, 1 h after administration, and 7 and 14 days after administration. Hematological and blood biochemical tests were performed before administration and 1, 7 and 12 days after administration.

[4] = Light-avoidance stability test after being packaged with aluminum foil (HPLC); type: physicochemical
Procedure: The stability of the compound is investigated under the conditions of high temperature, high humidity and light. The testing conditions for high performance liquid chromatography (HPLC) are as follows: Samples relating to Compound I-2 were tested using Method 2 and other samples were tested using Method 1. The test results of the influence factors are shown in Table 14, and the test results of the light-avoidance stability test are shown in Table 15.

[5] = Stability of the compounds under high temperature, high humidity and light (influence factors, HPLC); type: physicochemical
Procedure: Study on the Stability of the Compounds:
The stability of the compound is investigated under the conditions of high temperature, high humidity and light. The testing conditions for high performance liquid chromatography (HPLC) are as follows:
Instrument: high performance liquid chromatography;
Column: Inertsil C8-3, 150 mm×4.6 mm, 5 μm;
Mobile phase A: acetonitrile; mobile phase B: 5 mM ammonium dihydrogen phosphate;
Detection wavelength: 220 nm;
Column temperature: 35° C.;
Sample chamber temperature: 25° C.;
Column: Agilent Poroshell 120 EC-C18, 100 mm×4.6 mm, 2.7 μm;
Column temperature: 30° C.;
Other conditions are the same as that in Method 1.
Samples relating to Compound I-2 were tested using Method 2 and other samples were tested using Method 1. The test results of the influence factors are shown in Table 14, and the test results of the light-avoidance stability test are shown in Table 15.

[6] = intragastric 100 mg/kg over 14 days
[7] = intragastric 300 mg/kg over 14 days
[8] = 5 days, Light (aluminum foil) 4500 ± 500 LX
[9] = 10 days, Light (aluminum foil) 4500 ± 500 LX
[10] = 30 days, Light (aluminum foil) 4500 ± 500 LX
[11] = 5 days, High temperature 60° C.
[12] = 10 days, High temperature 60° C.
[13] = 30 days, High temperature 60° C.

For `C/C=C/C=C/C(=O)Oc1cc2c(s1)CCN([C@H](C(=O)OC)c1ccccc1Cl)C2` [Compound I-2, Methyl (S)-2-(2-chlorophenyl)-2-(2-((2E,4E)-2,4-hexadienoyloxy)-6,7-dihydrothieno[3,2-c]pyridin-5(4H)-yl)-acetate], the “Drug-related toxicity (appearance, mental activity, appetite, hematological, blood biochemical, ECG)” value (beagle dogs [1]) was “no significant drug-related toxicity”, the “Activities, mental condition and diet” value (beagle dogs [1]; [6]) was “normal activities, good mental condition, and normal diet” and the “ECG examinations, hematological tests and serum biochemical tests” value (beagle dogs [1]; [6]) was “no obvious abnormalities”. For the same compound, the “Activities, mental condition and diet” value (beagle dogs [1]; [7]) was “normal activities, good mental condition, and normal diet”, the “ECG examinations, hematological tests and serum biochemical tests” value (beagle dogs [1]; [7]) was “no obvious abnormalities” and the ED50 ([2]; inhibition of ADP-induced platelet aggregation, rats, oral administration, read-out: ED50) was 1.58 mg/kg. For the same compound, the “Inhibition rate (%)” value ([2]; rats, intragastric 0.75 mg/kg) was 7.0%, the “Inhibition rate (%)” value ([2]; rats, intragastric 1.5 mg/kg) was 50.8% and the “Inhibition rate (%)” value ([2]; rats, intragastric 3 mg/kg) was 85.8%. The “Aggregation rate (%)” value ([2]; rats, intragastric 0.75 mg/kg) was 55.8 ± 13.9%, the “Aggregation rate (%)” value ([2]; rats, intragastric 1.5 mg/kg) was 29.6 ± 8.7 % and the “Aggregation rate (%)” value ([2]; rats, intragastric 3 mg/kg) was 8.5 ± 9.4 %. For the same compound, the “ECG examinations, hematological tests and serum biochemical tests” value (beagle dogs [3]) was “no obvious abnormalities”, the “Activities, mental condition and diet” value (beagle dogs [3]) was “normal activities, good mental condition, and normal diet” and the Chromatographic purity % ([4]; 0 day, 0point) was 98.879%. For the same compound, the “Individual maximum impurity %” value ([4]; 0 day, 0point) was 0.705%, the Chromatographic purity % [4, 8] was 98.348% and the “Individual maximum impurity %” value [4, 8] was 0.699%. For the same compound, the Chromatographic purity % [4, 9] was 98.544%, the “Individual maximum impurity %” value [4, 9] was 0.699% and the Chromatographic purity % [4, 10] was 98.434%. For the same compound, the “Individual maximum impurity %” value [4, 10] was 0.696%, the Chromatographic purity % ([5]; 0 day, 0point) was 98.879% and the Isomer % ([5]; 0 day, 0point) was 0.705%. It also gave a Chromatographic purity % ([5]; 5 days, High humidity RH92.5%) of 98.897%, an Isomer % ([5]; 5 days, High humidity RH92.5%) of 0.707% and a Chromatographic purity % [5, 11] of 98.840%. The Isomer % [5, 11] was 0.696%, the Chromatographic purity % ([5]; 5 days, Light 4500 ± 500 LX) was 98.853% and the Isomer % ([5]; 5 days, Light 4500 ± 500 LX) was 0.699%. For the same compound, the Chromatographic purity % ([5]; 10 days, High humidity RH92.5%) was 98.882%, the Isomer % ([5]; 10 days, High humidity RH92.5%) was 0.708% and the Chromatographic purity % [5, 12] was 98.930%. The Isomer % [5, 12] was 0.692%, the Chromatographic purity % ([5]; 10 days, Light 4500 ± 500 LX) was 98.756% and the Isomer % ([5]; 10 days, Light 4500 ± 500 LX) was 0.712%. For the same compound, the Chromatographic purity % ([5]; 30 days, High humidity RH92.5%) was 98.885%, the Isomer % ([5]; 30 days, High humidity RH92.5%) was 0.704% and the Chromatographic purity % [5, 13] was 98.936%. For the same compound, the Isomer % [5, 13] was 0.683%, the Chromatographic purity % ([5]; 30 days, Light 4500 ± 500 LX) was 95.099% and the Isomer % ([5]; 30 days, Light 4500 ± 500 LX) was 0.695%.

For `C/C=C/C(=O)Oc1cc2c(s1)CCN([C@H](C(=O)OC)c1ccccc1Cl)C2` [Compound I-1, Methyl (S,E)-2-(2-chlorophenyl)-2-(2-(2-butenoyloxy)-6,7-dihydrothieno[3,2-c]pyridin-5(4H)-yl)-acetate], the “Drug-related toxicity (appearance, mental activity, appetite, hematological, blood biochemical, ECG)” value (beagle dogs [1]) was “no significant drug-related toxicity”, the “Activities, mental condition and diet” value (beagle dogs [1]; [6]) was “normal activities, good mental condition, and normal diet” and the “ECG examinations, hematological tests and serum biochemical tests” value (beagle dogs [1]; [6]) was “no obvious abnormalities”. The “Activities, mental condition and diet” value (beagle dogs [1]; [7]) was “normal activities, good mental condition, and normal diet”, the “ECG examinations, hematological tests and serum biochemical tests” value (beagle dogs [1]; [7]) was “no obvious abnormalities” and the ED50 ([2]; Platelet, po) was 1 mg/kg. The “Inhibition rate (%)” value ([2]; rats, intragastric 0.5 mg/kg) was 22.4%, the “Inhibition rate (%)” value ([2]; rats, intragastric 1 mg/kg) was 50.2% and the “Inhibition rate (%)” value ([2]; rats, intragastric 2 mg/kg) was 77.0%. The “Aggregation rate (%)” value ([2]; rats, intragastric 0.5 mg/kg) was 46.6 ± 8.1%, the “Aggregation rate (%)” value ([2]; rats, intragastric 1 mg/kg) was 29.9 ± 8.7 % and the “Aggregation rate (%)” value ([2]; rats, intragastric 2 mg/kg) was 13.8 ± 11.7 %. For the same compound, the “ECG examinations, hematological tests and serum biochemical tests” value (beagle dogs [3]) was “no obvious abnormalities”, the “Activities, mental condition and diet” value (beagle dogs [3]) was “normal activities, good mental condition, and normal diet” and the Chromatographic purity % ([4]; 0 day, 0point) was 99.612%. For the same compound, the “Individual maximum impurity %” value ([4]; 0 day, 0point) was 0.236%, the Chromatographic purity % [4, 8] was 99.598% and the “Individual maximum impurity %” value [4, 8] was 0.242%. For the same compound, the Chromatographic purity % [4, 9] was 99.565%, the “Individual maximum impurity %” value [4, 9] was 0.243% and the Chromatographic purity % [4, 10] was 99.555%. The “Individual maximum impurity %” value [4, 10] was 0.242%, the Chromatographic purity % ([5]; 0 day, 0point) was 99.612% and the “Individual maximum impurity %” value ([5]; 0 day, 0point) was 0.236%. For the same compound, the Chromatographic purity % ([5]; 5 days, High humidity RH92.5%) was 99.583%, the “Individual maximum impurity %” value ([5]; 5 days, High humidity RH92.5%) was 0.235% and the Chromatographic purity % [5, 11] was 99.595%. The “Individual maximum impurity %” value [5, 11] was 0.234%, the Chromatographic purity % ([5]; 5 days, Light 4500 ± 500 LX) was 99.539% and the “Individual maximum impurity %” value ([5]; 5 days, Light 4500 ± 500 LX) was 0.287%. For the same compound, the Chromatographic purity % ([5]; 10 days, High humidity RH92.5%) was 99.578%, the “Individual maximum impurity %” value ([5]; 10 days, High humidity RH92.5%) was 0.234% and the Chromatographic purity % [5, 12] was 99.596%. The “Individual maximum impurity %” value [5, 12] was 0.232%, the Chromatographic purity % ([5]; 10 days, Light 4500 ± 500 LX) was 99.502% and the “Individual maximum impurity %” value ([5]; 10 days, Light 4500 ± 500 LX) was 0.313%. The Chromatographic purity % ([5]; 30 days, High humidity RH92.5%) was 99.544%, the “Individual maximum impurity %” value ([5]; 30 days, High humidity RH92.5%) was 0.235% and the Chromatographic purity % [5, 13] was 99.570%. For the same compound, the “Individual maximum impurity %” value [5, 13] was 0.237%, the Chromatographic purity % ([5]; 30 days, Light 4500 ± 500 LX) was 98.868% and the “Individual maximum impurity %” value ([5]; 30 days, Light 4500 ± 500 LX) was 0.698%.

— patent publication US11466025B2, “Thienopyridine derivatives containing unsaturated aliphatic olefinic bond, preparation method and use thereof” (Tianjin Institute of Pharmaceutical Research Co., Ltd., priority 2017, dated 2022)
